In ChEMBL document CHEMBL3352227, “Synthesis, antimycobacterial and antibacterial evaluation of l-[(1R, 2S)-2-fluorocyclopropyl]fluoroquinolone derivatives containing an oxime functional moiety” (Eur J Med Chem, 2014):
≈ marks a conversion by molar mass, not a printed value.

Tests used:
Assay type in all cases: functional
[1] = system: Escherichia coli; assay: Antibacterial activity against extended-spectrum beta-lactamase producing Escherichia coli 12-14 after 18 to 24 hrs by standard twofold serial dilution method
[2] = system: Klebsiella pneumoniae; assay: Antibacterial activity against Klebsiella pneumoniae 12-2 after 18 to 24 hrs by standard twofold serial dilution method
[3] = system: Staphylococcus aureus; assay: Antibacterial activity against methicillin-sensitive Staphylococcus aureus 12-2 after 18 to 24 hrs by standard twofold serial dilution method
[4] = system: Mycobacterium tuberculosis; assay: Antimycobacterial activity against Mycobacterium tuberculosis H37Rv ATCC 27294 by MABA method
[5] = system: Staphylococcus aureus; assay: Antibacterial activity against methicillin-sensitive Staphylococcus aureus 12-5 after 18 to 24 hrs by standard twofold serial dilution method
[6] = system: Escherichia coli; assay: Antibacterial activity against extended-spectrum beta-lactamase producing Escherichia coli 12-3 after 18 to 24 hrs by standard twofold serial dilution method
[7] = system: Escherichia coli; assay: Antibacterial activity against Escherichia coli ATCC 25922 after 18 to 24 hrs by standard twofold serial dilution method
[8] = system: Staphylococcus aureus; assay: Antibacterial activity against methicillin-resistant Staphylococcus aureus 12-2 after 18 to 24 hrs by standard twofold serial dilution method
[9] = system: Klebsiella pneumoniae; assay: Antibacterial activity against extended-spectrum beta-lactamase producin Klebsiella pneumoniae 12-14 after 18 to 24 hrs by standard twofold serial dilution method
[10] = system: Klebsiella pneumoniae; assay: Antibacterial activity against Klebsiella pneumoniae 12-4 after 18 to 24 hrs by standard twofold serial dilution method
[11] = system: Staphylococcus epidermidis; assay: Antibacterial activity against methicillin-sensitive Staphylococcus epidermidis 12-3 after 18 to 24 hrs by standard twofold serial dilution method
[12] = system: Pseudomonas aeruginosa; assay: Antibacterial activity against Pseudomonas aeruginosa 12-14 after 18 to 24 hrs by standard twofold serial dilution method
[13] = system: Streptococcus pneumoniae; assay: Antibacterial activity against Streptococcus pneumoniae 12-18 after 18 to 24 hrs by standard twofold serial dilution method
[14] = system: Staphylococcus aureus; assay: Antibacterial activity against methicillin-resistant Staphylococcus aureus 12-5 after 18 to 24 hrs by standard twofold serial dilution method
[15] = system: Staphylococcus epidermidis; assay: Antibacterial activity against methicillin-sensitive Staphylococcus epidermidis 12-1 after 18 to 24 hrs by standard twofold serial dilution method
[16] = system: Escherichia coli; assay: Antibacterial activity against extended-spectrum beta-lactamase producing Escherichia coli 12-15 after 18 to 24 hrs by standard twofold serial dilution method
[17] = system: Staphylococcus aureus; assay: Antibacterial activity against methicillin-resistant Staphylococcus aureus 12-4 after 18 to 24 hrs by standard twofold serial dilution method
[18] = system: Staphylococcus aureus; assay: Antibacterial activity against methicillin-sensitive Staphylococcus aureus 12-4 after 18 to 24 hrs by standard twofold serial dilution method
[19] = system: Staphylococcus epidermidis; assay: Antibacterial activity against methicillin-resistant Staphylococcus epidermidis 12-1 after 18 to 24 hrs by standard twofold serial dilution method
[20] = system: Klebsiella pneumoniae; assay: Antibacterial activity against extended-spectrum beta-lactamase producin Klebsiella pneumoniae 12-4 after 18 to 24 hrs by standard twofold serial dilution method
[21] = system: Klebsiella pneumoniae; assay: Antibacterial activity against extended-spectrum beta-lactamase producin Klebsiella pneumoniae 12-3 after 18 to 24 hrs by standard twofold serial dilution method
[22] = system: Escherichia coli; assay: Antibacterial activity against Escherichia coli 12-1 after 18 to 24 hrs by standard twofold serial dilution method
[23] = system: Staphylococcus epidermidis; assay: Antibacterial activity against methicillin-sensitive Staphylococcus epidermidis 12-6 after 18 to 24 hrs by standard twofold serial dilution method
[24] = system: Pseudomonas aeruginosa; assay: Antibacterial activity against Pseudomonas aeruginosa 12-12 after 18 to 24 hrs by standard twofold serial dilution method
[25] = system: Klebsiella pneumoniae; assay: Antibacterial activity against extended-spectrum beta-lactamase producin Klebsiella pneumoniae 12-7 after 18 to 24 hrs by standard twofold serial dilution method
[26] = system: Escherichia coli; assay: Antibacterial activity against extended-spectrum beta-lactamase producing Escherichia coli 12-2 after 18 to 24 hrs by standard twofold serial dilution method
[27] = system: Streptococcus pneumoniae; assay: Antibacterial activity against Streptococcus pneumoniae ATCC 49619 after 18 to 24 hrs by standard twofold serial dilution method
[28] = system: Klebsiella pneumoniae; assay: Antibacterial activity against Klebsiella pneumoniae 12-1 after 18 to 24 hrs by standard twofold serial dilution method
[29] = system: Staphylococcus aureus; assay: Antibacterial activity against methicillin-sensitive Staphylococcus aureus 12-1 after 18 to 24 hrs by standard twofold serial dilution method
[30] = system: Staphylococcus aureus; assay: Antibacterial activity against Staphylococcus aureus ATCC 25923 after 18 to 24 hrs by standard twofold serial dilution method
[31] = system: Staphylococcus epidermidis; assay: Antibacterial activity against methicillin-sensitive Staphylococcus epidermidis 12-8 after 18 to 24 hrs by standard twofold serial dilution method
[32] = system: Staphylococcus epidermidis; assay: Antibacterial activity against methicillin-resistant Staphylococcus epidermidis 12-6 after 18 to 24 hrs by standard twofold serial dilution method

SMILES | MIC [1] [mg/L] | MIC [2] [mg/L] | MIC [3] [mg/L] | MIC [4] [mg/L] | MIC [5] [mg/L] | MIC [6] [mg/L] | MIC [7] [mg/L] | MIC [8] [mg/L] | MIC [9] [mg/L] | MIC [10] [mg/L] | MIC [11] [mg/L] | MIC [12] [mg/L] | MIC [13] [mg/L] | MIC [14] [mg/L] | MIC [15] [mg/L] | MIC [16] [mg/L] | MIC [17] [mg/L] | MIC [18] [mg/L] | MIC [19] [mg/L] | MIC [20] [mg/L] | further results
CCO/N=C1/CN(c2c(F)cc3c(=O)c(C(=O)O)cn([C@@H]4C[C@@H]4F)c3c2Cl)CC1CN (stereo not given in full) | 128 (≈ 281 µM) | 1 (≈ 2.2 µM) | 0.125 (≈ 0.275 µM) | 4 (≈ 8.79 µM) | 0.25 (≈ 0.55 µM) | 32 (≈ 70.4 µM) | 0.5 (≈ 1.1 µM) | 16 (≈ 35.2 µM) | 64 (≈ 141 µM) | 1 (≈ 2.2 µM) | 1 (≈ 2.2 µM) | 32 (≈ 70.4 µM) | 4 (≈ 8.79 µM) | 16 (≈ 35.2 µM) | 0.5 (≈ 1.1 µM) | > 128 | 16 (≈ 35.2 µM) | 0.25 (≈ 0.55 µM) | 4 (≈ 8.79 µM) | 32 (≈ 70.4 µM) | MIC [21]: 32 mg/L (≈ 70.4 µM); MIC [22]: 2 mg/L (≈ 4.4 µM); MIC [23]: 0.25 mg/L (≈ 0.55 µM); MIC [24]: 4 mg/L (≈ 8.79 µM); MIC [25]: 4 mg/L (≈ 8.79 µM); MIC [26]: 128 mg/L (≈ 281 µM); MIC [27]: 1 mg/L (≈ 2.2 µM); MIC [28]: 0.5 mg/L (≈ 1.1 µM); MIC [29]: 0.25 mg/L (≈ 0.55 µM); MIC [30]: 0.5 mg/L (≈ 1.1 µM); MIC [31]: 2 mg/L (≈ 4.4 µM); MIC [32]: 16 mg/L (≈ 35.2 µM)
CCO/N=C1/CN(c2c(F)cc3c(=O)c(C(=O)O)cn([C@@H]4C[C@@H]4F)c3c2OC)CC1CN (stereo not given in full) | > 128 | 4 (≈ 8.88 µM) | 0.25 (≈ 0.555 µM) | 32 (≈ 71 µM) | 0.25 (≈ 0.555 µM) | > 128 | 4 (≈ 8.88 µM) | 128 (≈ 284 µM) | > 128 | 4 (≈ 8.88 µM) | 2 (≈ 4.44 µM) | 128 (≈ 284 µM) | 4 (≈ 8.88 µM) | 64 (≈ 142 µM) | 0.25 (≈ 0.555 µM) | > 128 | 128 (≈ 284 µM) | 0.25 (≈ 0.555 µM) | 32 (≈ 71 µM) | 128 (≈ 284 µM) | MIC [21]: > 128 mg/L; MIC [22]: 16 mg/L (≈ 35.5 µM); MIC [23]: 0.25 mg/L (≈ 0.555 µM); MIC [24]: 8 mg/L (≈ 17.8 µM); MIC [25]: 32 mg/L (≈ 71 µM); MIC [26]: > 128 mg/L; MIC [27]: 4 mg/L (≈ 8.88 µM); MIC [28]: 4 mg/L (≈ 8.88 µM); MIC [29]: 0.25 mg/L (≈ 0.555 µM); MIC [30]: 0.015 mg/L (≈ 0.0333 µM); MIC [31]: 16 mg/L (≈ 35.5 µM); MIC [32]: > 128 mg/L
CO/N=C1/CN(c2nc3c(cc2F)c(=O)c(C(=O)O)cn3[C@@H]2C[C@@H]2F)[C@H]1CN | 128 (≈ 325 µM) | 0.25 (≈ 0.636 µM) | 0.06 (≈ 0.153 µM) | 1 (≈ 2.54 µM) | 0.06 (≈ 0.153 µM) | 16 (≈ 40.7 µM) | 0.06 (≈ 0.153 µM) | 32 (≈ 81.4 µM) | 128 (≈ 325 µM) | 0.25 (≈ 0.636 µM) | 0.5 (≈ 1.27 µM) | 32 (≈ 81.4 µM) | 2 (≈ 5.08 µM) | 32 (≈ 81.4 µM) | 0.06 (≈ 0.153 µM) | > 128 | 32 (≈ 81.4 µM) | 0.03 (≈ 0.0763 µM) | 4 (≈ 10.2 µM) | 8 (≈ 20.3 µM) | MIC [21]: 64 mg/L (≈ 163 µM); MIC [22]: 1 mg/L (≈ 2.54 µM); MIC [23]: 0.06 mg/L (≈ 0.153 µM); MIC [24]: 2 mg/L (≈ 5.08 µM); MIC [25]: 2 mg/L (≈ 5.08 µM); MIC [26]: 128 mg/L (≈ 325 µM); MIC [27]: 0.5 mg/L (≈ 1.27 µM); MIC [28]: 0.25 mg/L (≈ 0.636 µM); MIC [29]: 0.06 mg/L (≈ 0.153 µM); MIC [30]: 0.125 mg/L (≈ 0.318 µM); MIC [31]: 2 mg/L (≈ 5.08 µM); MIC [32]: 4 mg/L (≈ 10.2 µM)
NC[C@H]1/C(=N\OCc2ccccc2)CN1c1nc2c(cc1F)c(=O)c(C(=O)O)cn2[C@@H]1C[C@@H]1F | > 128 | 1 (≈ 2.13 µM) | 0.25 (≈ 0.533 µM) | 2 (≈ 4.26 µM) | 0.25 (≈ 0.533 µM) | 32 (≈ 68.2 µM) | 0.125 (≈ 0.266 µM) | 64 (≈ 136 µM) | > 128 | 1 (≈ 2.13 µM) | 0.5 (≈ 1.07 µM) | 64 (≈ 136 µM) | 4 (≈ 8.52 µM) | 32 (≈ 68.2 µM) | 0.25 (≈ 0.533 µM) | > 128 | 32 (≈ 68.2 µM) | 0.125 (≈ 0.266 µM) | 16 (≈ 34.1 µM) | 16 (≈ 34.1 µM) | MIC [21]: > 128 mg/L; MIC [22]: 0.25 mg/L (≈ 0.533 µM); MIC [23]: 0.25 mg/L (≈ 0.533 µM); MIC [24]: 4 mg/L (≈ 8.52 µM); MIC [25]: 4 mg/L (≈ 8.52 µM); MIC [26]: > 128 mg/L; MIC [27]: 0.5 mg/L (≈ 1.07 µM); MIC [28]: 0.5 mg/L (≈ 1.07 µM); MIC [29]: 0.25 mg/L (≈ 0.533 µM); MIC [30]: 0.125 mg/L (≈ 0.266 µM); MIC [31]: 8 mg/L (≈ 17 µM); MIC [32]: 8 mg/L (≈ 17 µM)
CCO/N=C1/CN(c2nc3c(cc2F)c(=O)c(C(=O)O)cn3[C@@H]2C[C@@H]2F)CC1CN (stereo not given in full) | 16 (≈ 38 µM) | 0.06 (≈ 0.142 µM) | 0.015 (≈ 0.0356 µM) | 0.5 (≈ 1.19 µM) | 0.015 (≈ 0.0356 µM) | 16 (≈ 38 µM) | < 0.008 | 4 (≈ 9.49 µM) | 32 (≈ 75.9 µM) | 0.125 (≈ 0.297 µM) | 0.03 (≈ 0.0712 µM) | 2 (≈ 4.75 µM) | 0.06 (≈ 0.142 µM) | 4 (≈ 9.49 µM) | < 0.008 | 128 (≈ 304 µM) | 4 (≈ 9.49 µM) | 0.015 (≈ 0.0356 µM) | 1 (≈ 2.37 µM) | 8 (≈ 19 µM) | MIC [21]: 16 mg/L (≈ 38 µM); MIC [22]: 0.06 mg/L (≈ 0.142 µM); MIC [23]: 0.015 mg/L (≈ 0.0356 µM); MIC [24]: 0.125 mg/L (≈ 0.297 µM); MIC [25]: 0.125 mg/L (≈ 0.297 µM); MIC [26]: 64 mg/L (≈ 152 µM); MIC [27]: 0.03 mg/L (≈ 0.0712 µM); MIC [28]: 0.03 mg/L (≈ 0.0712 µM); MIC [29]: 0.015 mg/L (≈ 0.0356 µM); MIC [30]: < 0.008 mg/L; MIC [31]: 0.25 mg/L (≈ 0.593 µM); MIC [32]: 4 mg/L (≈ 9.49 µM)
